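Where inhibition never reached the appropriate level, the endpoint shown equals the highest concentration tested. Otherwise, values were interpolated linearly from a five-concentration, 48-hour dose response in 96-well plates. Here, GI50 denotes the concentration required for 50% inhibition of growth.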 Active and inactive are the calls of the source. No stated cut-off is given here; in the data, active = GI50 up to about 1.1 µM and inactive = higher.
Tests used:
Test in all cases: NCI anticancer screen, dose series, 48 h
NCI-H522 = system: NCI-H522
Hs-578T = system: Hs-578T
KM12 = system: KM12
SK-MEL-5 = system: SK-MEL-5
MCF7 = system: MCF7
HCC 2998 = system: HCC 2998
RXF 393 = system: RXF 393
SN12C = system: SN12C
PC-3 = system: PC-3
SF-295 = system: SF-295
ACHN = system: ACHN
UO-31 = system: UO-31
SF-539 = system: SF-539
CAKI-1 = system: CAKI-1
CCRF-CEM = system: CCRF-CEM
NCI-H460 = system: NCI-H460
TK-10 = system: TK-10
EKVX = system: EKVX
NCI-H23 = system: NCI-H23
OVCAR-8 = system: OVCAR-8
RPMI-8226 = system: RPMI-8226
HCT-116 = system: HCT-116
UACC-62 = system: UACC-62
SF-268 = system: SF-268
OVCAR-4 = system: OVCAR-4
IGROV-1 = system: IGROV-1
COLO 205 = system: COLO 205
UACC-257 = system: UACC-257
SNB-75 = system: SNB-75
T47D = system: T47D
Malme-3M = system: Malme-3M
NCI/ADR-RES = system: NCI/ADR-RES
MDA-MB-435 = system: MDA-MB-435
U-251 = system: U-251
786-0 = system: 786-0
NCI-H226 = system: NCI-H226
SR = system: SR
A498 = system: A498
MDA-N = system: MDA-N
SW-620 = system: SW-620
HT-29 = system: HT-29
M14 = system: M14
MOLT-4 = system: MOLT-4
K562 = system: K562
DU-145 = system: DU-145
HCT-15 = system: HCT-15
A549 = system: A549
HOP-62 = system: HOP-62
MDA-MB-231 = system: MDA-MB-231
SK-OV-3 = system: SK-OV-3
LOX IMVI = system: LOX IMVI
OVCAR-3 = system: OVCAR-3
SNB-19 = system: SNB-19
SK-MEL-2 = system: SK-MEL-2
OVCAR-5 = system: OVCAR-5
BT-549 = system: BT-549
HOP-92 = system: HOP-92
SK-MEL-28 = system: SK-MEL-28
HL-60 = system: HL-60

CC(=O)NC1C(OC(C)C(=O)NC(C)C(=O)NC(CCC(=O)NCCCCCNc2ccc([N+](=O)[O-])c3[nH]c4ccccc4c(=O)c23)C(N)=O)C(O)C(CO)OC1(C)OCc1ccccc1 (configuration not stated)
GI50 (NCI-H522): > 100 µM (inactive) | GI50 (Hs-578T): > 100 µM (inactive) | GI50 (KM12): 79.3 µM (inactive) | GI50 (SK-MEL-5): > 100 µM (inactive) | GI50 (MCF7): 73.3 µM (inactive) | GI50 (HCC 2998): > 100 µM (inactive) | GI50 (RXF 393): 87.1 µM (inactive) | GI50 (SN12C): > 100 µM (inactive) | GI50 (PC-3): > 100 µM (inactive) | GI50 (SF-295): > 100 µM (inactive) | GI50 (ACHN): > 100 µM (inactive) | GI50 (UO-31): 50.4 µM (inactive) | GI50 (SF-539): 64.1 µM (inactive) | GI50 (CAKI-1): > 100 µM (inactive) | GI50 (CCRF-CEM): > 100 µM (inactive) | GI50 (NCI-H460): 26.7 µM (inactive) | GI50 (TK-10): 11.9 µM (inactive) | GI50 (EKVX): > 100 µM (inactive) | GI50 (NCI-H23): > 100 µM (inactive) | GI50 (OVCAR-8): 71.6 µM (inactive) | GI50 (RPMI-8226): 28.1 µM (inactive) | GI50 (HCT-116): 23.7 µM (inactive) | GI50 (UACC-62): > 100 µM (inactive) | GI50 (SF-268): > 100 µM (inactive) | GI50 (OVCAR-4): > 100 µM (inactive) | GI50 (IGROV-1): 64.1 µM (inactive) | GI50 (COLO 205): > 100 µM (inactive) | GI50 (UACC-257): > 100 µM (inactive) | GI50 (SNB-75): > 100 µM (inactive) | GI50 (T47D): > 100 µM (inactive) | GI50 (Malme-3M): > 100 µM (inactive) | GI50 (NCI/ADR-RES): > 100 µM (inactive) | GI50 (MDA-MB-435): > 100 µM (inactive) | GI50 (U-251): > 100 µM (inactive) | GI50 (786-0): 38.7 µM (inactive) | GI50 (NCI-H226): 89.9 µM (inactive) | GI50 (SR): 14 µM (inactive) | GI50 (A498): > 100 µM (inactive) | GI50 (MDA-N): > 100 µM (inactive) | GI50 (SW-620): 67.9 µM (inactive) | GI50 (HT-29): 30.9 µM (inactive) | GI50 (M14): > 100 µM (inactive) | GI50 (MOLT-4): 24.8 µM (inactive) | GI50 (K562): 45.3 µM (inactive) | GI50 (DU-145): 64.6 µM (inactive) | GI50 (HCT-15): 73.8 µM | GI50 (A549): 50.8 µM (inactive) | GI50 (HOP-62): 89.7 µM (inactive) | GI50 (MDA-MB-231): 46.9 µM (inactive) | GI50 (SK-OV-3): > 100 µM (inactive) | GI50 (LOX IMVI): > 100 µM (inactive) | GI50 (OVCAR-3): > 100 µM (inactive) | GI50 (SNB-19): > 100 µM (inactive) | GI50 (SK-MEL-2): > 100 µM (inactive) | GI50 (OVCAR-5): > 100 µM (inactive) | GI50 (BT-549): > 100 µM (inactive)

CNC(=O)OCC1=C(COC(=O)NC)CN(c2ccccc2)C1
GI50 (Hs-578T): > 100 µM (inactive) | GI50 (KM12): > 100 µM (inactive) | GI50 (SK-MEL-5): > 100 µM (inactive) | GI50 (HOP-92): > 100 µM (inactive) | GI50 (MCF7): > 100 µM (inactive) | GI50 (HCC 2998): > 100 µM (inactive) | GI50 (RXF 393): > 100 µM (inactive) | GI50 (SN12C): > 100 µM (inactive) | GI50 (PC-3): > 100 µM (inactive) | GI50 (SF-295): > 100 µM (inactive) | GI50 (ACHN): > 100 µM (inactive) | GI50 (UO-31): > 100 µM (inactive) | GI50 (SF-539): > 100 µM (inactive) | GI50 (CCRF-CEM): > 100 µM (inactive) | GI50 (NCI-H460): > 100 µM (inactive) | GI50 (TK-10): > 100 µM (inactive) | GI50 (EKVX): > 100 µM (inactive) | GI50 (NCI-H23): > 100 µM (inactive) | GI50 (OVCAR-8): > 100 µM (inactive) | GI50 (RPMI-8226): > 100 µM (inactive) | GI50 (HCT-116): > 100 µM (inactive) | GI50 (UACC-62): > 100 µM (inactive) | GI50 (SF-268): > 100 µM (inactive) | GI50 (OVCAR-4): > 100 µM (inactive) | GI50 (IGROV-1): > 100 µM (inactive) | GI50 (COLO 205): > 100 µM (inactive) | GI50 (UACC-257): > 100 µM (inactive) | GI50 (SNB-75): > 100 µM (inactive) | GI50 (T47D): > 100 µM (inactive) | GI50 (SK-MEL-28): > 100 µM (inactive) | GI50 (Malme-3M): > 100 µM (inactive) | GI50 (NCI/ADR-RES): > 100 µM (inactive) | GI50 (MDA-MB-435): > 100 µM (inactive) | GI50 (U-251): > 100 µM (inactive) | GI50 (786-0): > 100 µM (inactive) | GI50 (NCI-H226): > 100 µM (inactive) | GI50 (SR): > 100 µM (inactive) | GI50 (A498): > 100 µM (inactive) | GI50 (MDA-N): > 100 µM (inactive) | GI50 (SW-620): > 100 µM (inactive) | GI50 (HT-29): > 100 µM (inactive) | GI50 (M14): > 100 µM (inactive) | GI50 (MOLT-4): > 100 µM (inactive) | GI50 (K562): > 100 µM (inactive) | GI50 (DU-145): > 100 µM (inactive) | GI50 (HCT-15): > 100 µM | GI50 (A549): > 100 µM (inactive) | GI50 (HOP-62): > 100 µM (inactive) | GI50 (MDA-MB-231): > 100 µM (inactive) | GI50 (SK-OV-3): > 100 µM (inactive) | GI50 (LOX IMVI): > 100 µM (inactive) | GI50 (OVCAR-3): > 100 µM (inactive) | GI50 (SNB-19): > 100 µM (inactive) | GI50 (SK-MEL-2): > 100 µM (inactive) | GI50 (OVCAR-5): > 100 µM (inactive) | GI50 (BT-549): > 100 µM (inactive)

Nc1cc(CO)cc(Nc2c3ccccc3nc3occc23)c1
GI50 (NCI-H522): 14.4 µM (inactive) | GI50 (Hs-578T): 31 µM (inactive) | GI50 (KM12): 33.8 µM (inactive) | GI50 (SK-MEL-5): 23.1 µM (inactive) | GI50 (HOP-92): 29.1 µM (inactive) | GI50 (MCF7): 20 µM (inactive) | GI50 (HCC 2998): 31.3 µM (inactive) | GI50 (SN12C): 39 µM (inactive) | GI50 (PC-3): 64 µM (inactive) | GI50 (SF-295): 37.7 µM (inactive) | GI50 (ACHN): 29.8 µM (inactive) | GI50 (UO-31): 32.2 µM (inactive) | GI50 (SF-539): 24.8 µM (inactive) | GI50 (CAKI-1): 28.6 µM (inactive) | GI50 (CCRF-CEM): 48.1 µM (inactive) | GI50 (NCI-H460): 21.2 µM (inactive) | GI50 (TK-10): 52.6 µM (inactive) | GI50 (EKVX): 67.5 µM (inactive) | GI50 (NCI-H23): 28.9 µM (inactive) | GI50 (OVCAR-8): 35.7 µM (inactive) | GI50 (RPMI-8226): 26.5 µM (inactive) | GI50 (HCT-116): 24.8 µM (inactive) | GI50 (UACC-62): 20.8 µM (inactive) | GI50 (SF-268): 21.3 µM (inactive) | GI50 (OVCAR-4): 17.1 µM (inactive) | GI50 (IGROV-1): 24.5 µM (inactive) | GI50 (COLO 205): 28.6 µM (inactive) | GI50 (UACC-257): 42.6 µM (inactive) | GI50 (T47D): 29.6 µM (inactive) | GI50 (SK-MEL-28): 36.4 µM (inactive) | GI50 (Malme-3M): 92 µM (inactive) | GI50 (NCI/ADR-RES): 22.4 µM (inactive) | GI50 (MDA-MB-435): 10.5 µM (inactive) | GI50 (U-251): 45.9 µM (inactive) | GI50 (786-0): 29.9 µM (inactive) | GI50 (NCI-H226): 29.1 µM (inactive) | GI50 (SR): 3.91 µM (inactive) | GI50 (A498): 51.4 µM (inactive) | GI50 (MDA-N): 25.9 µM (inactive) | GI50 (HT-29): 6.76 µM (inactive) | GI50 (M14): 33.6 µM (inactive) | GI50 (MOLT-4): 13.7 µM (inactive) | GI50 (DU-145): 43.3 µM (inactive) | GI50 (HCT-15): 25.6 µM | GI50 (A549): 40.4 µM (inactive) | GI50 (HOP-62): 37.2 µM (inactive) | GI50 (MDA-MB-231): 31.8 µM (inactive) | GI50 (SK-OV-3): 36.5 µM (inactive) | GI50 (LOX IMVI): 36.6 µM (inactive) | GI50 (HL-60): 22.8 µM (inactive) | GI50 (OVCAR-3): 72.4 µM (inactive) | GI50 (SNB-19): > 100 µM (inactive) | GI50 (SK-MEL-2): 23.6 µM (inactive) | GI50 (OVCAR-5): > 100 µM (inactive) | GI50 (BT-549): 19.4 µM (inactive)

Source: ChEMBL document CHEMBL1201862, “PubChem BioAssay data set” (2004)
